Reference: US8710233B2 (Gruenenthal GmbH, priority 2005, dated 2014)
Like-named read-outs stand apart in the source and are kept apart here.

Legend:
vanilloid receptor (VR1) [1] = molecular target: T1, vanilloid receptor (VR1) (Homo sapiens, UniProt Q8NER1); test: FLIPR Ca2+ influx assay on CHO K1 cells transfected with the VR1 gene (pharmacological method II); format: cell-based; conditions: table 4; capsaicin; read-out: Ki (human) Cap.
T1 construct: expressed in transfected cells; host or cells: CHO K1 cells (ECACC), stably transfected

[2] = molecular target: T2, vanilloid receptor 1 (VR1/TRPV1) of the rat species (Rattus norvegicus, UniProt O35433); test: FLIPR Ca2+ influx assay on rat dorsal root ganglia cells (pharmacological method I); format: cell-based; conditions: for Ki: table 4, capsaicin, read-out: Ki (rat) Cap.
T2 construct: The spinal column is removed from decapitated rats; from tissue; host or cells: primary cells dissociated from rat dorsal root ganglia
In short: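 Primary rat dorsal root ganglion cells loaded with 2 μM Fluo-4, Ca2+ influx read on FLIPR as peak fluorescence. Triplicates, at least 3 independent experiments.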

VR1/TRPV1 receptor = VR1/TRPV1 receptor (Homo sapiens, UniProt Q8NER1); test: IC50 (human) after pH stimulus; format: cell-based; conditions: for IC50: table 4
[3] = test system: capsaicin induced hypothermie; test: Hypothermie assay in the mouse (capsaicin induced hypothermie); format: in vivo
[4] = test system: formaldehyde induced nociceptive behaviour; test: Formaldehyde test in mice, second (late) phase; format: in vivo, mouse; conditions: mouse; for inhibition in vivo at 0.3 mg/kg / inhibition in vivo at 0.1 mg/kg: read-out: inhibition formaldehyde test (n = 10); for inhibition in vivo at 0.1 mg/kg: 0.1 mg/kg body weight po
vanilloid receptor (VR1) [5] = molecular target: T1, vanilloid receptor (VR1); test: FLIPR Ca2+ influx assay on CHO K1 cells transfected with the VR1 gene (pharmacological method II); format: cell-based; conditions: CHO-K1; @ 1 μM; ne = no effect; read-out: inhibition in percent, Ki (human) Cap.
[6] = 0.3 mg/kg body weight po, mouse, read-out: inhibition hypothermie (n = 5)

T2 sequence (O35433 whole entry): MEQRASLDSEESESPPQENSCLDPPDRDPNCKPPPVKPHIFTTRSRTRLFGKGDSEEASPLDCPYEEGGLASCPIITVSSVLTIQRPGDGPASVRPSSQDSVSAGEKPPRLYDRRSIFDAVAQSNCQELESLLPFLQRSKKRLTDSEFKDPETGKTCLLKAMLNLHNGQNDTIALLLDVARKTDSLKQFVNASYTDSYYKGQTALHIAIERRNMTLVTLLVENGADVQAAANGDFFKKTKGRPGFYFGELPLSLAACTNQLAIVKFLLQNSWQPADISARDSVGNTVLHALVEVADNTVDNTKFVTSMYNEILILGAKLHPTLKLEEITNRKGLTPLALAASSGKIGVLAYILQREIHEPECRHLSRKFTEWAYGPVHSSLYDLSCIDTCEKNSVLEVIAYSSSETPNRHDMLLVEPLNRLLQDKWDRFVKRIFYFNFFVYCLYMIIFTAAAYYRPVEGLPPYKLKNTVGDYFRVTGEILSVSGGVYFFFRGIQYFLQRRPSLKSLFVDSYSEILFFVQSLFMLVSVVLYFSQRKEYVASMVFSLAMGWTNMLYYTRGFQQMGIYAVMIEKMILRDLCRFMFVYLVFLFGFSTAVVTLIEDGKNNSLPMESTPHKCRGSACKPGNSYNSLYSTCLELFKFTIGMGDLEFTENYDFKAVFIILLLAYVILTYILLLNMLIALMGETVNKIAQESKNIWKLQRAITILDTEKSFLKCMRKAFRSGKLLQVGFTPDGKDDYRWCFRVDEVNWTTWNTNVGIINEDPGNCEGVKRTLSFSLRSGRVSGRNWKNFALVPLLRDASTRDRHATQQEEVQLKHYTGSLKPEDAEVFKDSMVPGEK
Chain of VR1/TRPV1 receptor (Q8NER1 whole entry): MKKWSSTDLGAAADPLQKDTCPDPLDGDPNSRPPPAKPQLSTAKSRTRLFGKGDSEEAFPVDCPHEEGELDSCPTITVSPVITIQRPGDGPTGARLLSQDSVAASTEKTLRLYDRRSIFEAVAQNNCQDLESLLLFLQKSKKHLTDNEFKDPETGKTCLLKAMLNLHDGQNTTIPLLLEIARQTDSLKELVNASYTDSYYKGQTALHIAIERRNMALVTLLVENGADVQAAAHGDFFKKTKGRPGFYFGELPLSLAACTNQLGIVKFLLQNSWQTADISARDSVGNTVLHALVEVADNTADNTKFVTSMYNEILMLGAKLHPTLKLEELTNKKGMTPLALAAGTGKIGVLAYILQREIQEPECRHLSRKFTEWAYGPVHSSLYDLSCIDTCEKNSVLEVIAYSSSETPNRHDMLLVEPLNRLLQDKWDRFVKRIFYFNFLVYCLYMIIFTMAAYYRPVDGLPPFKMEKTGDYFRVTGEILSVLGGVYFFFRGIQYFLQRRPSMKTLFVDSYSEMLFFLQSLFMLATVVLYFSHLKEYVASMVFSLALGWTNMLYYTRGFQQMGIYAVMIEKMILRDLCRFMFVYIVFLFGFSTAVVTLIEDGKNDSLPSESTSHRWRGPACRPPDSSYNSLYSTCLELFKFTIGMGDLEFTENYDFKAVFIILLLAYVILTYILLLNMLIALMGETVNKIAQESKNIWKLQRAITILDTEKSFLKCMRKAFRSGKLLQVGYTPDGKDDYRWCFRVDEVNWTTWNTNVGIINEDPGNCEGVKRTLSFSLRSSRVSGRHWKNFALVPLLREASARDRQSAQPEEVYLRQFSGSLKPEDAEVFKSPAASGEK
T1 sequence (Q8NER1 whole entry): as above

Compound | Ki (vanilloid receptor (VR1) [1]) [nM] | Ki [2] [nM] | IC50 (VR1/TRPV1 receptor) [nM] | inhibition in vivo at 0.3 mg/kg [3, 6] [%] | inhibition in vivo at 0.3 mg/kg ([4]; 0.3 mg/kg body weight po) [%] | inhibition hypothermie (n = 5) ([3]; 0.3 mg/kg body weight po, mouse) [po 53%] | inhibition formaldehyde test (n = 10) ([4]; 0.3 mg/kg body weight po) [po 39%] | inhibition in vivo at 0.1 mg/kg [4] [%] | inhibition at 1 µM (vanilloid receptor (VR1) [5]) [%] | inhibition in vivo at 0.3 mg/kg ([3]; Mus musculus, po, read-out: inhibition hypothermie (n = 5)) [%] | inhibition at 1 µM ([2]; read-out: inhibition in percent, Ki (rat) Cap.) [%] | inhibition in vivo at 0.1 mg/kg ([3]; 0.1 mg/kg body weight po, mouse, read-out: inhibition hypothermie (n = 5)) [%] | inhibition at 10 µM (VR1/TRPV1 receptor; @ 10 μM, read-out: inhibition in percent, IC50 (human) after pH stimulus) [%]
CC(C(=O)NCc1ccc(C(F)(F)F)cc1N1CCCCCC1)c1ccc(NS(C)(=O)=O)c(F)c1 (stereo not shown) [Example 174, N-(2-azepan-1-yl-4-trifluoromethyl-benzyl)-2-(3-fluoro-4-methylsulfonamido-phenyl)-propionamide] | 1.6 | 1.4 | 64.5 | 39 | 5 | – | – | – | – | – | – | – | –
CC1CCN(c2cc(C(F)(F)F)ccc2CNC(=O)C(C)c2ccc(NS(C)(=O)=O)c(F)c2)CC1 (stereo not shown) [Example 82, 2-(3-Fluor-4-(methylsulfonamido)phenyl)-N-(2-(4-methylpiperidin-1-yl)-4-(trifluoromethyl)benzyl)propanamide] | 0.9 | 0.7 | 16.2 | – | – | 0.3 | 0.3 | – | – | – | – | – | –
CC(C(=O)NCc1ccc(C(F)(F)F)nc1SC1CCCCC1)c1ccc(NS(C)(=O)=O)c(F)c1 (stereo not shown) [Example 126] | 0.9 | 1.2 | 101 | 0 | – | – | – | 20 | – | – | – | – | –
CC(C(=O)NCc1ccc(C(F)(F)F)nc1OCC1CCNCC1)c1ccc(NS(C)(=O)=O)c(F)c1 (stereo not shown) [Compound 343] | – | – | – | – | – | – | – | – | 8 | – | – | – | –
CCCCNc1nc(C(F)(F)F)ccc1CNC(=O)C(C)c1ccc(NS(C)(=O)=O)c(F)c1 (stereo not shown) [Example 116, N-(2-butylamino-6-trifluoromethyl-pyridin-3-ylmethyl)-2-(3-fluoro-4-methylsulfonamido-phenyl)-propionamide] | 9.1 | 6.6 | 293 | 21 | – | – | – | 39 | – | – | – | – | –
CC1CCN(c2nc(C(F)(F)F)ccc2CNC(=O)C(C)c2ccc(NS(C)(=O)=O)c(F)c2)CC1 (stereo not shown) [Example 80, 2-(3-fluoro-4-methylsulfonamido-phenyl)-N-(2-4-methylpiperidin-1-yl-6-trifluoromethyl-pyridin-3-ylmethyl)-propionamide] | 0.3 | 0.6 | 5.4 | – | 58 | – | – | – | – | 66 | – | – | –
CC(C(=O)NCc1ccc(C(F)(F)F)nc1NC1CCCCC1)c1ccc(NS(C)(=O)=O)c(F)c1 (stereo not shown) [Example 90, N-(2-cyclohexylamino-6-trifluoromethyl-pyridin-3-ylmethyl)-2-(3-fluoro-4-methylsulfonamido-phenyl)-propionamide] | 20.4 | 47 | 260 | 81 | 46 | – | – | – | – | – | – | – | –
CC(C(=O)NCc1ccc(C(F)(F)F)nc1OCc1ccncc1)c1ccc(NS(C)(=O)=O)c(F)c1 (stereo not shown) [Example 177, 2-(3-fluoro-4-methylsulfonamido-phenyl)-N-[2-(pyridin-4-ylmethoxy)-6-trifluoromethyl-pyridin-3-ylmethyl]-propionamide] | 51 | – | 1290 | 14 | 31 | – | – | – | – | – | 34 | – | –
CC(C(=O)NCc1ccc(C(F)(F)F)cc1N1CCCCCCC1)c1ccc(NS(C)(=O)=O)c(F)c1 (stereo not shown) [Example 217, N-(2-azocan-1-yl-4-trifluoromethyl-benzyl)-2-(3-fluoro-4-methylsulfonamido-phenyl)-propionamide] | 2.8 | 1.1 | 36.5 | – | 9 | – | – | – | – | – | – | 40 | –
CC(C(=O)NCc1ccc(C(F)(F)Cl)nc1OC1CCCCC1)c1ccc(NS(C)(=O)=O)c(F)c1 (stereo not shown) [Example 168, N-[6-(chloro-difluoro-methyl)-2-cyclohexyloxy-pyridin-3-ylmethyl]-2-(3-fluoro-4-methylsulfonamido-phenyl)-propionamide] | 0.9 | 1.4 | 17.6 | 21 | 1 | – | – | – | – | – | – | – | –
CC(C(=S)NCc1ccc(C(F)(F)F)nc1-c1ccc(F)cc1)c1ccc(NS(C)(=O)=O)c(F)c1 (stereo not shown) [Example 130, 2-(3-fluoro-4-methylsulfonamido-phenyl)-N-[2-(4-fluoro-phenyl)-6-trifluoromethyl-pyridin-3-ylmethyl]-thiopropionamide] | 2.1 | 4.5 | 34.3 | 58 | 41 | – | – | – | – | – | – | – | –
CC(C(=O)NCc1ccc(C(F)(F)F)nc1-c1cccs1)c1ccc(NS(C)(=O)=O)c(F)c1 (stereo not shown) [Example 88, 2-(3-fluoro-4-methylsulfonamido-phenyl)-N-((6-(trflluoromethyl)-2-(thiophen-2-yl)pyridin-3-yl)methyl)-propionamide] | 0.3 | 5 | 57.1 | 38 | 4 | – | – | – | – | – | – | – | –
CC(C(=O)NCc1ccc(C(F)(F)F)nc1-c1ccc(C(C)(C)C)cc1)c1ccc(NS(C)(=O)=O)c(F)c1 (stereo not shown) [Example 117] | 0.5 | 0.5 | 23.5 | 70 | 5 | – | – | – | – | – | – | – | –
CC(C(=S)NCc1ccc(C(F)(F)F)nc1N1CCCC1)c1ccc(NS(C)(=O)=O)c(F)c1 (stereo not shown) [Example 129, 2-(3-fluoro-4-methylsulfonamido-phenyl)-N-(2-pyrrolidin-1-yl-6-trifluoromethyl-pyridin-3-ylmethyl)-thiopropionamide] | 1.8 | 1.6 | 77.2 | 10 | 5 | – | – | – | – | – | – | – | –
CC(C(=O)NCc1ccc(C(F)(F)F)nc1N1CCCC1)c1ccc(NS(C)(=O)=O)c(Br)c1 (stereo not shown) [Example 103, 2-(3-bromo-4-methylsulfonamido-phenyl)-N-(2-pyrrolidin-1-yl-6-trifluoromethyl-pyridin-3-ylmethyl)-propionamide] | 2.8 | 4.9 | – | 39 | 36 | – | – | – | – | – | – | – | 16
CCCCN(C)c1nc(C(F)(F)F)ccc1CNC(=O)C(C)c1ccc(NS(C)(=O)=O)c(F)c1 (stereo not shown) [Example 167, N-[2-(butyl-methyl-amino)-6-trifluoromethyl-pyridin-3-ylmethyl]-2-(3-fluoro-4-methylsulfonamido-phenyl)-propionamide] | 0.8 | 2.8 | 21.3 | 19 | – | – | – | 62 | – | – | – | – | –
CCCCOC1CCN(c2nc(C(F)(F)F)ccc2CNC(=O)C(C)c2ccc(NS(C)(=O)=O)c(F)c2)CC1 (stereo not shown) [Example 160, N-(4-butoxy-6′-trifluoromethyl-3,4,5,6-tetrahydro-2H-[1,2′]bipyridinyl-3′-ylmethyl)-2-(3-fluoro-4-methylsulfonamido-phenyl)-propionamide] | 3.5 | 3 | 28.2 | 28 | 10 | – | – | – | – | – | – | – | –
Cc1cc(C(C)C(=O)NCc2ccc(C(F)(F)F)nc2N2CCCCC2)ccc1NS(C)(=O)=O (stereo not shown) [Example 127, 2-(4-methylsulfonamido-3-methyl-phenyl)-N-(6′-trifluoromethyl-3,4,5,6-tetrahydro-2H-[1,2′]bipyridinyl-3′-ylmethyl)-propionamide] | 0.5 | 0.6 | 15.4 | 6 | 22 | – | – | – | – | – | – | – | –
COC1CCN(c2nc(C(F)(F)F)ccc2CNC(=O)C(C)c2ccc(NS(C)(=O)=O)c(F)c2)CC1 (stereo not shown) [Example 159, 2-(3-fluoro-4-methylsulfonamido-phenyl)-N-(4-methoxy-6′-trifluoromethyl-3,4,5,6-tetrahydro-2H-[1,2′]bipyridinyl-3′-ylmethyl)-propionamide] | 2.4 | 21.4 | 280 | 28 | 10 | – | – | – | – | – | – | – | –
CC(C(=O)NCc1ccc(C(F)(F)F)nc1-c1cccc(F)c1)c1ccc(NS(C)(=O)=O)c(F)c1 (stereo not shown) [Example 148, 2-(3-fluoro-4-methylsulfonamido-phenyl)-N-[2-(3-fluoro-phenyl)-6-trifluoromethyl-pyridin-3-ylmethyl]-propionamide] | 1.3 | 1.1 | 63.6 | 45 | 44 | – | – | – | – | – | – | – | –
CC(C(=O)NCc1ccc(C(F)(F)F)nc1N1CCN(c2ccc(F)cc2)CC1)c1ccc(NS(C)(=O)=O)c(F)c1 (stereo not shown) [Example 179, 2-(3-fluoro-4-methylsulfonamido-phenyl)-N-{2-[4-(4-fluoro-phenyl)-piperazin-1-yl]-6-trifluoromethyl-pyridin-3-ylmethyl}-propionamide] | 1.1 | 1 | 23.1 | 57 | 5 | – | – | – | – | – | – | – | –
CCCCOc1cc(C(C)(C)C)ccc1CNC(=O)C(C)c1ccc(NS(C)(=O)=O)c(F)c1 (stereo not shown) [Example 108, N-(2-butoxy-4-tert-butyl-benzyl)-2-(3-fluoro-4-methylsulfonamido-phenyl)-propionamide] | 1.4 | 0.6 | 114 | 38 | 15 | – | – | – | – | – | – | – | –
